Series [1] concerns the target T1, Histone deacetylase (Homo sapiens) (UniProt Q13547+O15379+Q9UBN7+Q92769+Q9UQL6+Q8WUI4+Q9BY41+Q96DB2+P56524+Q9UKV0+Q969S8). The settings on record: HeLa, at 12.5 µM.
Description: Inhibition of human HDAC in HeLa cells nuclear extract at 12.5 uM by fluorimetric assay
Series [2] in a line: Cytotoxicity against human MeT-5A cells. It counts as cell-based.
The subject of series [3] is HepG2. Briefly: Antiproliferative activity against human HepG2 cells assessed as cell proliferation after 72 hrs by MTT assay. Further details: concentration or dose not given beside the values. The class given is functional. In general terms: Tetrazolium dyes change colour on reduction, which living cells bring about.
Series [4] has as its system MCF7. Briefly: Antiproliferative activity against human MCF7 cells assessed as cell proliferation after 72 hrs by MTT assay. The arrangement: concentration or dose not given beside the values. It counts as functional.
The target of series [5] is T1, Histone deacetylase (Homo sapiens). Put plainly: Inhibition of HDAC in human MeT-5A cells assessed as hisone H3 acetylation after 16 hrs by BRET assay. The class given is cell-based. For orientation: Bioluminescence resonance energy transfer reports proximity on the nanometre scale.
In series [6] the target is T2, Protein deacetylase HDAC6 (Homo sapiens, UniProt Q9UBN7).
T2 sequence (Q9UBN7 whole entry): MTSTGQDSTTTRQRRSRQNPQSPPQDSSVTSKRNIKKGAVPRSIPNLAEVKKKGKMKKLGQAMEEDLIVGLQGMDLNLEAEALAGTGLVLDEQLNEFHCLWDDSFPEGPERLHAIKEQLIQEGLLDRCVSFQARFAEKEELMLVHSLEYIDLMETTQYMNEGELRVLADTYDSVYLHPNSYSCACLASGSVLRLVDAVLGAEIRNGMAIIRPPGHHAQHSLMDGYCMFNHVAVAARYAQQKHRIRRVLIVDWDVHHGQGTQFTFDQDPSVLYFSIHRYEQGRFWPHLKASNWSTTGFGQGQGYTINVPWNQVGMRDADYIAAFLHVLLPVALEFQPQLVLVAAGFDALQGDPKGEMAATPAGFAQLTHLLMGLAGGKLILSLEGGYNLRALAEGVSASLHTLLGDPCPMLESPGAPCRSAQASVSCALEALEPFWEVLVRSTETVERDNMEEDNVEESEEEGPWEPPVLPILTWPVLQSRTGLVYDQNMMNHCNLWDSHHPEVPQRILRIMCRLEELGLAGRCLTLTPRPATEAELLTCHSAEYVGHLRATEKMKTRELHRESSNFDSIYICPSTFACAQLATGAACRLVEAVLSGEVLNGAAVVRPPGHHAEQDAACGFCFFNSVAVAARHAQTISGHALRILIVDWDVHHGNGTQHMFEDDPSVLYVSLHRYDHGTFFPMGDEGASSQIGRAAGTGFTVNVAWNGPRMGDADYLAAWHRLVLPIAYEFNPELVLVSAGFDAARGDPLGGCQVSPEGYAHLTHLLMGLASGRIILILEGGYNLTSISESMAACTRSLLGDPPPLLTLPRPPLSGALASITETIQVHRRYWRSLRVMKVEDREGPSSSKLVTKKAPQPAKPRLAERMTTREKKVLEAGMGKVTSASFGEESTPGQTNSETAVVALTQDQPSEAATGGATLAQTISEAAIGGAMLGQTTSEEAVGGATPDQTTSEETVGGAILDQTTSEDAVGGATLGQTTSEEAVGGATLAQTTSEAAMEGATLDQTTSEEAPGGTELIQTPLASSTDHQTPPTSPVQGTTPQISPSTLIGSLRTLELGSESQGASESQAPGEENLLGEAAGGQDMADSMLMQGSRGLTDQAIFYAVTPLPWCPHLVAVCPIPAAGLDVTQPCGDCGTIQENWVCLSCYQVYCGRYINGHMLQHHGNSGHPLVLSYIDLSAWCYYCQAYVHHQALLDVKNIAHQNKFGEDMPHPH
Briefly: Inhibition of HDAC6 (unknown origin) by fluorimetric assay.

Series [7] addresses Histone deacetylase 3 (Homo sapiens, UniProt O15379). Briefly: Inhibition of HDAC3 (unknown origin) by fluorimetric assay.
Series [8] addresses T2, Protein deacetylase HDAC6. Briefly: Inhibition of HDAC6 in human HeLa cells assessed as inhibition of tubulin deacetylation incubated for overnight by cELISA. The class given is cell-based.
In series [9] the target is Histone deacetylase 1 (Homo sapiens, UniProt Q13547). Briefly: Inhibition of HDAC1 (unknown origin) by fluorimetric assay.
In series [10] the target is T1, Histone deacetylase (Homo sapiens). Briefly: Inhibition of HDAC in human MeT-5A cells assessed as hisone H3 acetylation at 100 uM after 16 hrs by BRET assay. It counts as cell-based.
The species named for series [11] is Homo sapiens. Put plainly: Selectivity index, ratio of IC50 for HDAC2 (unknown origin) to IC50 for HDAC6 (unknown origin).
Series [12] is filed under the species Homo sapiens. Briefly: Selectivity index, ratio of IC50 for HDAC1 (unknown origin) to IC50 for HDAC6 (unknown origin).
Series [13] has as its target Histone deacetylase 2 (Homo sapiens, UniProt Q92769). Put plainly: Inhibition of HDAC2 (unknown origin) by fluorimetric assay.

Active and inactive are the calls of the source. The calls are words filed in the database; no cut-off is given here.

Sequence of Histone deacetylase 3 (O15379 whole entry): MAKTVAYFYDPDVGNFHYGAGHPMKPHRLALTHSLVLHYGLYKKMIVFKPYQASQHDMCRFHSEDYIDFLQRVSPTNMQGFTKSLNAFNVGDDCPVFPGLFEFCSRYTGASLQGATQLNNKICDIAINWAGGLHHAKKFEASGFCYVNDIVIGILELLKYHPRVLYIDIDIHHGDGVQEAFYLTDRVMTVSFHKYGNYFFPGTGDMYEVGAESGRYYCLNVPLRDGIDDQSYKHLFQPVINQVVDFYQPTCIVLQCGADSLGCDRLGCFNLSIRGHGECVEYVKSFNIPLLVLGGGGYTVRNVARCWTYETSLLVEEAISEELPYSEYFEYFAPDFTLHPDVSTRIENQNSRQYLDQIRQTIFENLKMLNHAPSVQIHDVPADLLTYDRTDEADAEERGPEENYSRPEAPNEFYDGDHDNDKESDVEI
Sequence of Histone deacetylase 1 (Q13547 whole entry): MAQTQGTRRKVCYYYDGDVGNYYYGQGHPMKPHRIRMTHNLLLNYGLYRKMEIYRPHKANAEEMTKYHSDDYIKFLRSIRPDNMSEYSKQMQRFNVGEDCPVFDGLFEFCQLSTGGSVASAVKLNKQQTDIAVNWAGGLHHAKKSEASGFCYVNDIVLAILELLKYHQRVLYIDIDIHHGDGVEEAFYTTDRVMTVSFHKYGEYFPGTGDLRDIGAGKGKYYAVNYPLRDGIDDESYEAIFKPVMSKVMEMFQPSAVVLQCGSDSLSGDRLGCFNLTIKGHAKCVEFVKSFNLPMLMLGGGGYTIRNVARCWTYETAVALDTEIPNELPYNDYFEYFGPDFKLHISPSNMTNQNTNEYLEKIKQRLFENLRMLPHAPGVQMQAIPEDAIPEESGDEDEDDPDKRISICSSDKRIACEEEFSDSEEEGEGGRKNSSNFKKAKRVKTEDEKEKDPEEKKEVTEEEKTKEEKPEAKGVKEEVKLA
Sequence of Histone deacetylase 2 (Q92769 whole entry): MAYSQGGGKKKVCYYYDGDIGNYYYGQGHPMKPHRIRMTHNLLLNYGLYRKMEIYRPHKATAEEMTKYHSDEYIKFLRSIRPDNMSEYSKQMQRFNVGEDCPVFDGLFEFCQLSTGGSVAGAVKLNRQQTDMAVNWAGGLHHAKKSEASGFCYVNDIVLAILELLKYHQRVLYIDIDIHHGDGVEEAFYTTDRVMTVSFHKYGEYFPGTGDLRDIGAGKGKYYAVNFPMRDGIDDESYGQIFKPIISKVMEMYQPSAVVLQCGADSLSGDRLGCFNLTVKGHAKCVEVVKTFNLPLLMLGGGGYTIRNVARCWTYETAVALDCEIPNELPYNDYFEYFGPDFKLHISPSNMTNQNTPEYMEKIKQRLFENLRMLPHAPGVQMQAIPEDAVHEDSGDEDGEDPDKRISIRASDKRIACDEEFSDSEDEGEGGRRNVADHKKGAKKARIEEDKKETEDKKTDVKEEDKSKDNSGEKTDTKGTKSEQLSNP

For the compound `CC(=O)Nc1ccc(C(=O)Nc2ccccc2N)cc1` [TACEDINALINE], the inhibition (usually the drop in the measured response relative to a control, in per cent) in series [1] was 42%. Further, in series [2], the Activity result is “Non-toxic”.

For `C=CCCC(=O)N(OC(=O)OC(C)(C)C)C(=O)OC(C)(C)C`, the figures for the Cell proliferation in series [3] and in series [4] were 110% and 94%, respectively.

Take `C=CCCC(=O)Nc1ccccc1NC(=O)OC(C)(C)C`: the Cell proliferation in [3] is recorded as 142%; in series [4], 50%.

Turning to `Nc1ccccc1NC(=O)CCCCCCC(=O)Nc1ccccc1N`, the Cell proliferation in series [3] amounted to 114%; in [4], 92%. In addition, in [5], the inhibition result is “Active”. Also, the Activity entry in series [2] is “Non-toxic”.

Take `CC(C)(C)OC(=O)Nc1ccccc1NC(=O)CCCCCCC(=O)Nc1ccccc1NC(=O)OC(C)(C)C`: the Cell proliferation turned out to be 136% in series [3] and 87% in series [4]. For the same compound, in series [5], the inhibition entry was “inactive”.

For `O=C(CCCCCCC(=O)NO)NO` [SUBEROHYDROXAMIC ACID], the IC50 (commonly the concentration at which inhibition is half-maximal) came to 2.03 µM in series [6] and 62.6 µM in series [7]. Further, the Cell proliferation came out at 107% in series [3] and 93% in series [4]. Further, the Activity entry in series [2] is listed as “Non-toxic”. Moreover, the half-maximal effective concentration (EC50) (usually the concentration giving half of the maximal effect) in series [8] was determined as 1.1 µM.

`O=C(CCCCCCC(=O)Nc1ccccc1)NO` [VORINOSTAT]: the Activity entry in [2] is reported as “Non-toxic”.

As to `CC(C)(C)OC(=O)Nc1ccccc1NC(=O)CC/C=C/CCC(=O)Nc1ccccc1NC(=O)OC(C)(C)C`, the inhibition result in series [5] is “inactive”.

Consider `CC(C)(C)OC(=O)ON(C(=O)CCCCCCC(=O)N(OC(=O)OC(C)(C)C)C(=O)OC(C)(C)C)C(=O)OC(C)(C)C`, for which the IC50 is 30.6 µM in series [9], 3.39 µM in series [6], 29.8 µM in series [13] and greater than 100 µM in [7]. For the same compound, the inhibition in series [1] came out at 60%. Moreover, the values for the Activity in [10] and in series [2] were 17 mU and “Non-toxic”, respectively. For the same compound, the Ratio IC50 in [11] and in [12] was 10 each time. Besides, the Cell proliferation is 108% in series [3] and 92% in series [4]. Further, in series [5], the inhibition result is “Active”. For the same compound, the EC50 in series [8] was determined as 5 µM.

For `CC(C)(C)OC(=O)ON(C(=O)CC/C=C/CCC(=O)N(OC(=O)OC(C)(C)C)C(=O)OC(C)(C)C)C(=O)OC(C)(C)C`, the Cell proliferation in series [3] was determined as 138%; in series [4], 100%. The inhibition entry in [5] was “inactive”. In addition, in series [2], the Activity result is “Non-toxic”. The EC50 in [8] turned out to be 17.7 µM.

For the origin of these results see ChEMBL document CHEMBL3739297, “Cross metathesis with hydroxamate and benzamide BOC-protected alkenes to access HDAC inhibitors and their biological evaluation highlighted intrinsic activity of BOC-protected dihydroxamates” (Bioorg Med Chem Lett, 2016).
